This note sets out measurements from patent publication US10874643B2 (priority 2015, dated 2020).

Counter-ions that a name gives are not always drawn. Like-named read-outs stand apart in the source and are kept apart here.

In data set [1] the test system is scn1Lab mutants. The experiment in a line: Locomotion tracking assay of seizure behavior (96-well format). As to conditions: for 5HT library first-pass locomotion screen: 250 μM, 6 fish per drug, positive hit = reduction in mean swim velocity ≥38%; for convulsive/seizure behavior with antihistamines / effect on locomotor seizure behavior / inhibition of spontaneous seizure behavior, initial library screen: 5 dpf; for convulsive/seizure behavior with antihistamines: shelf screen at 0.1-1 mM; for effect on locomotor seizure behavior: 1 mM; for effect on locomotor seizure behavior / inhibition of spontaneous seizure behavior, initial library screen: 6-12 fish; for inhibition of spontaneous seizure behavior, initial library screen: 667 μM; for swim activity / seizure behavior, third evaluation: 100 μM, 10 fish per trial; for seizure-induced swim activity and mean velocity, re-test on separate clutch: 667, 67 and 6.7 μM.

The test system of data set [2] is scn1Lab mutants. Type of data set: in vivo, zebrafish. As to conditions: for fish in which epileptiform activity became more frequent following exposure: 1 mM; for forebrain electrographic seizure activity in the same mutants after the locomotion assay: 100 μM, mutant embedded in agar.
The subject of data set [3] is wild-type larvae. The experiment in a line: DMSO toxicity in wild-type larvae. As to conditions: dilutions between 0.01 and 100%; n=12 fish per concentration.
The mark [4] stands for this setting: 1 mM bath applied, agar-embedded mutants 5-6 dpf, seven fish per drug, vs baseline.
Setting [5] is: 1 mM bath applied, 5-6 dpf, seven fish per drug, vs baseline.

Consider `CN1CCC(c2c[nH]c3ccc(O)cc23)CC1` [BRL-54443, 3-(1-methylpiperidin-4-yl)-1H-indol-5-ol], for which the “5HT library first-pass locomotion screen” value in data set [1] is given as “positive hits”. As to `C[C@H]1CNCCc2ccc(Cl)cc21` [lorcaserin], the “5HT library first-pass locomotion screen” value in data set [1] is on record as “positive hits”. As for `CN1CCc2c(c3ccccc3n2Cc2ccccc2)C1.CN1CCc2c(c3ccccc3n2Cc2ccccc2)C1.O=S(=O)(O)c1cccc2c(S(=O)(=O)O)cccc12` [mebhydrolin napthalenesulfonate], the “convulsive/seizure behavior with antihistamines” value (from here on “convulsive/seizure behavior”) in data set [1] is “failed to suppress convulsive behavior”.

`O=c1n(CCCN2CCN(c3cccc(Cl)c3)CC2)nc2ccccn12` [trazodone]: the “5HT library first-pass locomotion screen” value in data set [1] is given as “positive hits”. Moreover, the “toxicity in the locomotion assay” value in data set [1] (750 μM) is “toxic”. In data set [1] (concentrations between 100 and 750 μM, 30 or 90 min exposure, threshold ≥40%), the “inhibition of spontaneous seizure behavior, concentration-response re-test” value was “robust inhibition of spontaneous seizure behavior”. Besides, in data set [2] (FIG. 12B), the “epileptic seizure events in sample EEG traces” value is “suppression of epileptic seizure events”. Besides, the EEG activity entry in data set [2] (concentrations between 250 and 500 μM, n=15) is given as “effectively suppressed EEG activity”. Consider `C=CC(N)CCC(=O)O` (centres unmarked) [vigabatrin], for which the “Epileptiform event frequency (burst frequency; interictal- and ictal-like discharges)” value (“Epileptiform event frequency” below) in data set [2] (setting [4]) is “increased burst frequency”. In addition, the “fish in which epileptiform activity became more frequent following exposure” value (from here on “fish”) in data set [2] (seven fish per drug) is 6 of 7. Turning to `CN(C)CCc1c[nH]c2ccc(Cn3cncn3)cc12` [rizatriptan], the “5HT library first-pass locomotion screen” value in data set [1] was “positive hits”. `Nc1nnc(-c2cccc(Cl)c2Cl)c(N)n1` [lamotrigine]: the “effect on locomotor seizure behavior” value in data set [1] was “had no effect”. As to `C[S+](C)[O-]` [DMSO], the “lethal DMSO concentration” value in data set [3] is over 25%.

With `CCC1(C)CC(=O)NC1=O` (centres unmarked) [ethosuximide], in data set [1], the “effect on locomotor seizure behavior” value was “increased seizure behavior”. Also, the “fish” value in data set [2] (seven fish per drug) is 4 of 7. For `COc1ccccc1N1CCN(CCCNc2cc(=O)n(C)c(=O)n2C)CC1` [urapidil], the “5HT library first-pass locomotion screen” value in data set [1] is “positive hits”.

Take `NC(=O)N1c2ccccc2C=Cc2ccccc21` [carbamazepine]: the “Epileptiform event frequency” value in data set [2] (setting [4]) was “increased burst frequency”. In addition, the “fish” value in data set [2] (seven fish per drug) is recorded as 2 of 7. For the compound `CC(=O)Nc1nnc(S(N)(=O)=O)s1` [Acetazolamide], in data set [1], the “effect on locomotor seizure behavior” value is reported as “increased seizure behavior”.

With `CNCC[C@@H](Oc1ccccc1C)c1ccccc1` [atomoxetine], the “5HT library first-pass locomotion screen” value in data set [1] is “positive hits”.

For `NCC(O)CC(=O)O` (centres unmarked) [aminohydroxybutyric acid], the “inhibition of spontaneous seizure behavior, initial library screen” value (shortened to “inhibition … initial library screen”) in data set [1] was “ineffective”. For the compound `COc1ccccc1N1CCN(CCN2C(=O)CC3(CCCC3)CC2=O)CC1` [BMY 7378, 8-(2-[4-(2-methoxyphenyl)-1-piperazinyl]ethyl)-8-azaspiro[4.5]decane-7,9-dione], the “5HT library first-pass locomotion screen” value in data set [1] is “positive hits”. As to `CC(=O)[C@H]1CC[C@H]2[C@@H]3CC[C@H]4C[C@](C)(O)CC[C@]4(C)[C@H]3CC[C@]12C` [ganaxolone], in data set [1], the “effect on locomotor seizure behavior” value is given as “effective”. For the compound `CNS(=O)(=O)CCc1ccc2[nH]cc(C3CCN(C)CC3)c2c1` [naratriptap], the “5HT library first-pass locomotion screen” value in data set [1] is “positive hits”.

As to `C[C@]12N[C@H](Cc3ccccc31)c1ccccc12` [MK-801], the “epileptic seizure events in sample EEG traces” value in data set [2] (zebrafish, in vivo) is on record as “no suppression of epileptic events”.

`CNS(=O)(=O)Cc1ccc2[nH]cc(CCN(C)C)c2c1` [sumatriptan]: the “5HT library first-pass locomotion screen” value in data set [1] is recorded as “positive hits”.

With `CN1CCC(=C2c3ccccc3Sc3ccccc32)CC1` [pimethixene maleate], the “convulsive/seizure behavior” value in data set [1] is on record as “failed to suppress convulsive behavior”. On to `C#CCN(C)CCCOc1ccc(Cl)cc1Cl` [Clorgiline], for which, in data set [1], the “swim activity / seizure behavior, third evaluation” value is “reduced swim activity”; the “seizure-induced swim activity and mean velocity, re-test on separate clutch” value was “effective in reducing seizure-induced swim activity and mean velocity”. Moreover, in data set [2], the “forebrain electrographic seizure activity in the same mutants after the locomotion assay” value is “electrographic seizure events were still observed”. Regarding `CC(C)CCCC(C)NC(C)C` (centres unmarked) [iproheptine], the “convulsive/seizure behavior” value in data set [1] is given as “failed to suppress convulsive behavior”. Turning to `CC[C@@H](C(N)=O)N1CCCC1=O` [levetiracetam], the “effect on locomotor seizure behavior” value in data set [1] is “had no effect”. Turning to `CC(C)(C)C(O)/C=C/c1ccc2c(c1)OCO2` (centres unmarked) [stiripentol], in data set [1], the “effect on locomotor seizure behavior” value was “effectively inhibited seizure behavior”. Also, in data set [2] (setting [5]), the “fractional time spent seizing” value is reported as “reduced”. Further, the “Epileptiform event frequency” value in data set [2] (setting [4]) was “reduced”. On to `[Br-].[K+]` [potassium bromide], for which the “effect on locomotor seizure behavior” value in data set [1] is on record as “effectively inhibited seizure behavior”. In addition, in data set [2] (setting [5]), the “fractional time spent seizing” value is listed as “reduced”. Also, the “Epileptiform event frequency” value in data set [2] (setting [4]) is listed as “reduced”. Regarding `O=C1CC2(CCCC2)CC(=O)N1CCCCN1CCN(c2ncccn2)CC1` [buspirone], the “5HT library first-pass locomotion screen” value in data set [1] was “positive hits”. In the case of `O=C(CCCl)NCc1ccccc1` [beclamide], the “inhibition … initial library screen” value in data set [1] is recorded as “ineffective”.

In the case of `CN1C(=O)CN=C(c2ccccc2)c2cc(Cl)ccc21` [diazepam], the “effect on locomotor seizure behavior” value in data set [1] was “effectively inhibited seizure behavior”. In data set [2] (zebrafish, in vivo), the “Epileptiform event frequency” value was “reduced”; the “fractional time spent seizing” value was “reduced”.

On to `CN(C)CCc1c[nH]c2ccc(C[C@H]3COC(=O)N3)cc12` [zolmitriptan], for which, in data set [1], the “5HT library first-pass locomotion screen” value is “positive hits”. `CCNC1(c2cccs2)CCCCC1=O` (centres unmarked) [tiletamine]: the “inhibition … initial library screen” value in data set [1] is “ineffective”. Consider `O=C1Cc2cc(CCN3CCN(c4nsc5ccccc45)CC3)c(Cl)cc2N1` [ziprasidone], for which, in data set [1], the “5HT library first-pass locomotion screen” value was “positive hits”. As to `Cc1ccc(C(=O)C(C)CN2CCCCC2)cc1` (centres unmarked) [tolperisone], in data set [1], the “swim activity / seizure behavior, third evaluation” value was “reduced swim activity”; the “seizure-induced swim activity and mean velocity, re-test on separate clutch” value is “effective in reducing seizure-induced swim activity and mean velocity”. The “forebrain electrographic seizure activity in the same mutants after the locomotion assay” value in data set [2] was “electrographic seizure events were still observed”. As to `COc1ccc(C(CN(C)C)C2(O)CCCCC2)cc1` (centres unmarked) [venlafaxine], the “5HT library first-pass locomotion screen” value in data set [1] is recorded as “positive hits”.
